Columns and labels:
Format in all cases: in vivo
[1] = system: Echinochloa crus-galli (ECHCG); test: Biological Example 1 (Test 125): visual herbicidal damage to flooded ECHCG; conditions: 14 DAA
Method: Rice seeds, variety IR-64 (an indica type of rice), were sown in seed trays. After 7 days the resulting plants were transplanted as 3 groups of 2 plants, into pots containing a standard sandy loam soil saturated with water replicating swampy conditions. These were grown on for a further 9 days in a glasshouse bay (30/20° C. day/night; 18/6 hours light/dark; 75% humidity). Leptochloa chinensis (LEFCH) and Echinochloa crus-galli (ECHCG) were sown as 2 separate groups of approx 10-20 seeds into pots 13 days prior to application of the test substances, in the same glasshouse conditions as the rice. Therefore, each pot of weeds contained a group of LEFCH and a separate group of ECHCG. All pots of rice and all pots of weeds were flooded to 2-3 cm water depth the day prior to application of the test substances. Growth stages at time of application were as follows: Rice: from 2 leaves on the main stem up to tillering; ECHCG: from 2 leaves on the main stem up to tillering; LEFCH: 2-3 leaves.
Test solutions were prepared by mixing the appropriate aliquots of the test substances in deionised water to give the desired treatment concentration. Most of the test substances were used as formulated products. Specifically, compound A-13 was applied as the EC050 formulation disclosed in Formulation Example 1 herein (EC=emulsifiable concentrate). Reference compound A-4 was applied as the EC050 formulation disclosed in Reference Formulation Example 2 herein. Pyroxasulfone (a comparator co-herbicide) was applied as the SC050 formulation disclosed in Reference Formulation Example 6 herein (SC=Suspension concentrate). Imazosulfuron (a comparator co-herbicide) was applied as a GR0.25 formulation (GR=granule).
The test substances which were pure active ingredient (e.g. propyrisulfuron & fenoxasulfone & compound A-16) (labelled as ‘Technical’ in the following results table), were prepared by dissolving in 10.56% Emulsogen EL™ (castor oil ethoxylate, CAS Registry number 61791-12-6), 42.22% N-methylpyrrolidone and 42.22% dipropylene glycol mono-ethyl ether to give a stock solution containing 5% of the test substance and 95% of (Emulsogen EL™, N-methylpyrrolidone and dipropylene glycol mono-ethyl ether).
Application of the test substances was made by pipetting the required amount of the test solution or the test formulation gently into the flood water of the appropriate pot.
The test plants were then grown on in the same glasshouse conditions, and watered twice daily keeping the flood water at a depth of 2-3 cm.
A visual assessment of the % herbicidal damage was made 7 & 14 days after application […], and the results are presented herein as % visual herbicidal damage where 0=no damage to plants and 100=total kill.

[2] = system: Echinochloa crus-galli (ECHCG); test: Biological Example 2 (Test 109): visual herbicidal damage to flooded ECHCG; conditions: EC050, into flood water, 14 days after application
Method: Rice seeds, variety IR-64, were sown in seed trays, after 7 days they were transplanted as 3 groups of 2 plants, into pots containing a standard sandy loam soil saturated with water replicating swampy conditions. These were grown on for 9 days in a glasshouse bay (30/20° C. day/night; 18/6 hours light/dark; 75% humidity). Approx 10-20 seeds of Echinochloa crus-galli were sown into pots 13 days prior to application, in the same conditions as the rice. All pots were flooded to 2-3 cm water depth the day prior to application. Growth stages at time of application were: Rice: 2-3 leaves, ECHCG: 2-3 leaves.
The test solutions were prepared by mixing the appropriate aliquots of the test substance (here, compound A-13 as the EC050 Formulation Example 1 disclosed herein) in de-ionised water to give the desired treatment concentration.
Application was made by pipetting the required amount of the test solution gently into the flood water of the appropriate pot.
The test plants were grown on in the same glasshouse conditions, and watered twice daily keeping the flood water at a depth of 2-3 cm.
(§1) A visual assessment of the % herbicidal damage was made 14 days after application (0=no damage to plants, 100=total kill).

[3] = system: Echinochloa crus-galli (ECHCG); test: Biological Example 4 (Test 110): wet seeded rice (WSR) method, ECHCG damage; conditions: for WSR ECHCG 0.5lf % herbicidal damage / WSR ECHCG 3lf % herbicidal damage: EC050 + 0.2% Adsee, foliar spray, 14 days after application; for WSR ECHCG 0.5lf % herbicidal damage: 0.5 leaf stage; for WSR ECHCG 3lf % herbicidal damage: 3 leaf stage
Source text: (§2) Rice seeds varieties IR-64 and Arborio, Echinochloa crus-galli (ECHCG), and Leptochloa chinensis (LEFCH) were sown in seed trays containing a standard sandy loam soil saturated with water replicating swampy conditions. They were sown at intervals to achieve plants at the following growth stages at time of application: IR-64 and Arborio rice: from 3 leaves on the main stem to tillering; ECHCG: at two different leaf stages: 0-0.5 leaf and 2-3 leaf; LEFCH: 3 leaf. Glasshouse bay conditions were 30/20° C. day/night; 18/6 hours light/dark; 75% humidity.
(§3) The test solutions were prepared by mixing the appropriate aliquots of the test substance (here, compound A-13 as EC050 Formulation Example 1) and adjuvant (0.2% Adsee as adjuvant) in de-ionised water to give the desired treatment concentration.
(§4) Application was as a foliar spray, made using a tracksprayer. 3 days after application the trays were flooded to 2-3 cm water depth, and maintained at this level for the duration of the test.
(§5) No. of repetitions: 1 test only.
as §1

[4] = system: Leptochloa chinensis (LEFCH); test: Biological Example 4 (Test 110): wet seeded rice (WSR) method, LEFCH damage; conditions: EC050 + 0.2% Adsee, foliar spray, LEFCH 3 leaf, 14 days after application
Source text: as §2, §3, §4, §5, §1

## CC1(C)OC(C)(C)C(O)=C(c2cc(-c3ccc(Cl)cc3F)ccc2C2CC2)C1=O [compound A-13, 4-(4′-Chloro-4-cyclopropyl-2′-fluorobiphenyl-3-yl)-2,2,6,6-tetramethylpyran-3,5-dione]
[1]; 60 g/ha applied alone (EC050)
  ECHCG control: 35%
[1]; 90 g/ha applied alone (EC050)
  ECHCG control: 55%
[1]; 120 g/ha applied alone (EC050)
  ECHCG control: 55%
[2]; 60 g/ha
  ECHCG % herbicidal damage: 68%
[2]; 120 g/ha
  ECHCG % herbicidal damage: 90%
[2]; 240 g/ha
  ECHCG % herbicidal damage: 98%
[3]; 8 g/ha
  WSR ECHCG 0.5lf % herbicidal damage: 45%
  WSR ECHCG 3lf % herbicidal damage: 65%
[3]; 60 and 125 g/ha, 2 growth stages, 0.5 leaf and 3 leaf, wet seeded rice method
  WSR ECHCG control: 90-100%
[3]; 60 g/ha
  WSR ECHCG 0.5lf % herbicidal damage: 90%
  WSR ECHCG 3lf % herbicidal damage: 100%
[3]; 125 g/ha
  WSR ECHCG 0.5lf % herbicidal damage: 100%
  WSR ECHCG 3lf % herbicidal damage: 100%
[3]; 500 g/ha
  WSR ECHCG 0.5lf % herbicidal damage: 100%
  WSR ECHCG 3lf % herbicidal damage: 100%
[4]; 8 g/ha
  WSR LEFCH % herbicidal damage: 10%
[4]; 60 g/ha
  WSR LEFCH % herbicidal damage: 10%
[4]; 125 g/ha
  WSR LEFCH % herbicidal damage: 65%
[4]; 500 g/ha
  WSR LEFCH % herbicidal damage: 75%

— patent US20130137573A1, “HERBICIDAL COMPOSITIONS COMPRISING, AND METHODS OF USE OF, HERBICIDALLY ACTIVE PYRANDIONES” (priority 2009, published 2013)
